Reference: patent US20220280587A1, “MEDICAL GELS CONTAINING A QUATERNARY AMMONIUM COMPOUND, PHENOXYETHANOL, ALOE VERA JUICE, AND NATURAL SPORICIDAL MOISTURIZERS” (priority 2021, published 2022)
In brackets after ≈: the same amount, converted by molar mass.

Columns and labels:
Assay type in all cases: cell-based
C. botulinum spores = assay: microbe, parasite or virus in culture; conditions: for MIC / MBC: Clostridium botulinum; for MIC: read-out: Sporostatic MIC (mM); for MBC: read-out: Sporicidal MIC (mM)
P. glabrum = assay: Antifungal combination of potassium sorbate and vanillin (MIC, FIC isobologram)
P. digitatum = assay: as above; conditions: Penicillium digitatum
P. italicum = assay: as above; conditions: Penicillium italicum
Pseudomonas aeruginosa = assay: Bactericidal / inhibitory concentration against Pseudomonas aeruginosa

Question: Which MIC (C. botulinum spores) does the source give for `CC=O` [Acetaldehyde] here?
Answer: 0.78 mM (≈ 34.4 µg/mL)

Question: Which MIC (C. botulinum spores) does the source give for `O=Cc1ccccc1` [Benzaldehyde] here?
Answer: 0.6 mM (≈ 63.7 µg/mL)

Question: With `O=CC=Cc1ccccc1` [Cinnamaldehyde] as the molecule, how does the MIC (C. botulinum spores) read?
Answer: 0.78 mM (≈ 103 µg/mL)

Question: What does the source list for `CCCCCCC=O` [Hepaldehyde]?
Answer: Sporicidal MIC (C. botulinum spores): >2500 mM; Sporostatic MIC (C. botulinum spores): 0.60 mM

Question: What does the source list for `CC(C)C=O` [Isobutyraldehyde]?
Answer: MBC (C. botulinum spores): 39 mM (≈ 2810 µg/mL); MIC (C. botulinum spores): 0.6 mM (≈ 43.3 µg/mL)

Question: `O=CCc1ccccc1` [Phenylacetaldehyde] was tested. Which MIC (C. botulinum spores) did it give?
Answer: 0.6 mM (≈ 72.1 µg/mL)

Question: How did the MIC (C. botulinum spores) turn out when `O=CC(=O)c1ccccc1` [Phenylglyoxal] was run?
Answer: 0.6 mM (≈ 80.5 µg/mL)

Question: With `O=Cc1ccc2c(c1)OCO2` [Piperonal] as the molecule, how does the MIC (C. botulinum spores) read?
Answer: 0.6 mM (≈ 90.1 µg/mL)

Question: How did the “Sporicidal MIC” value (C. botulinum spores) turn out when `CC(=O)C=O` [Pyruvaldehyde] was run?
Answer: 156 mM

Question: And the “Sporostatic MIC” value (C. botulinum spores)?
Answer: 2.44 mM

Question: With `CCCCC=O` [Valeraldehyde] as the molecule, how does the MIC (C. botulinum spores) read?
Answer: 2.44 mM (≈ 210 µg/mL)

Question: With `COc1cc(C=O)ccc1O` [Vanillin] as the molecule, how does the MIC (P. glabrum; potassium sorbate 0 PPM) read?
Answer: 1200 µg/mL

Question: And the MIC (P. glabrum; potassium sorbate 100 PPM)?
Answer: 1100 µg/mL

Question: What about the MIC (P. glabrum; potassium sorbate 300 PPM) of the same molecule?
Answer: 500 µg/mL

Question: What about the MIC (P. glabrum; potassium sorbate 500 PPM) of the same molecule?
Answer: 100 µg/mL

Question: What about the MIC (P. digitatum; potassium sorbate 0 PPM) of the same molecule?
Answer: 1100 µg/mL

Question: And the MIC (P. digitatum; potassium sorbate 50 PPM)?
Answer: 300 µg/mL

Question: What about the MIC (P. digitatum; potassium sorbate 100 PPM) of the same molecule?
Answer: 100 µg/mL

Question: What about the MIC (P. italicum; potassium sorbate 0 PPM) of the same molecule?
Answer: 1100 µg/mL

Question: And the MIC (P. italicum; potassium sorbate 100 PPM)?
Answer: 300 µg/mL

Question: And the MIC (P. italicum; potassium sorbate 150 PPM)?
Answer: 100 µg/mL

Question: What about the MBC (C. botulinum spores) of the same molecule?
Answer: 1.25 mM (≈ 190 µg/mL)

Question: And the MIC (C. botulinum spores)?
Answer: 0.6 mM (≈ 91.3 µg/mL)

Question: How did the MIC (C. botulinum spores) turn out when `CCCCCC(C=O)=Cc1ccccc1` [α-Amylcinnamaldehyde] was run?
Answer: 0.6 mM (≈ 121 µg/mL)

Question: What does the source list for benzalkonium chloride?
Answer: Concentration that kills Pseudomonas aeruginosa (Pseudomonas aeruginosa; benzalkonium chloride alone): 0.13%; Concentration that kills Pseudomonas aeruginosa (Pseudomonas aeruginosa; when aloe vera juice is present at 10%): 0.10%
